According to the supplement of paper PMC10307832:

Key:
Experiment in all cases: relative viability (nuclei count vs DMSO), 5 days (fraction); higher = more cells survive
[1] = compound: C1CNCCC1C2=CC(=NN2)C3=CC=NC=C3 + CS(=O)(=O)CCNCc1ccc(-c2ccc3ncnc(Nc4ccc(OCc5cccc(F)c5)c(Cl)c4)c3c2)o1 [Lapatinib] (partner 2 µM)
In short: (§1)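 Lung cancer cell lines were seeded in 1536-well plates and dosed by pin tool the next day, with either a single drug or a fixed anchor-drug dose combined with five library-drug doses (not always all listed) spaced in √10 steps. Five days later, one step fixed the cells and stained their nuclei (final 0.05% Triton X-100, 1% formaldehyde, 1 ug/ml Hoechst), and nuclei were counted on 4× images. Relative viability is the nuclei count in treated wells divided by the count in vehicle wells, and each value is the median of duplicate plates.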

[2] = compound: O[C@H]1CC[C@H](Nc2ncc3nc(Nc4c(F)cc(F)cc4F)n([C@H]4CCOC4)c3n2)CC1 [Tanzisertib] + CC(=O)Nc1cccc(-n2c(=O)n(C3CC3)c(=O)c3c(Nc4ccc(I)cc4F)n(C)c(=O)c(C)c32)c1 [Trametinib] (partner 0.02 µM)
In short: as §1

[3] = compound: O[C@H]1CC[C@H](Nc2ncc3nc(Nc4c(F)cc(F)cc4F)n([C@H]4CCOC4)c3n2)CC1 [Tanzisertib] + C[C@@H](Oc1cc(-c2cnn(C3CCNCC3)c2)cnc1N)c1c(Cl)ccc(F)c1Cl [Crizotinib] (partner 1 µM)
In short: as §1

[4] = compound: O[C@H]1CC[C@H](Nc2ncc3nc(Nc4c(F)cc(F)cc4F)n([C@H]4CCOC4)c3n2)CC1 [Tanzisertib] + CC(=O)c1c(C)c2cnc(Nc3ccc(N4CCNCC4)cn3)nc2n(C2CCCC2)c1=O [Palbociclib] (partner 0.5 µM)
In short: as §1

| Cell Line | relative viability ([1]; first compound 0.08 µM) | relative viability ([1]; first compound 0.8 µM) | relative viability ([1]; first compound 2.53 µM) | relative viability ([1]; first compound 8 µM) | relative viability ([2]; first compound 0.08 µM) | relative viability ([2]; first compound 0.253 µM) | relative viability ([2]; first compound 0.8 µM) | relative viability ([2]; first compound 2.53 µM) | relative viability ([2]; first compound 8 µM) | relative viability ([3]; first compound 0.08 µM) | relative viability ([3]; first compound 0.253 µM) | relative viability ([3]; first compound 0.8 µM) | relative viability ([3]; first compound 2.53 µM) | relative viability ([3]; first compound 8 µM) | relative viability ([4]; first compound 0.08 µM) | relative viability ([4]; first compound 0.253 µM) | relative viability ([4]; first compound 0.8 µM) | relative viability ([4]; first compound 2.53 µM) | relative viability ([4]; first compound 8 µM) |
| --- | --- | --- | --- | --- | --- | --- | --- | --- | --- | --- | --- | --- | --- | --- | --- | --- | --- | --- | --- |
| EPLC-272H | 0.92 | 1 | 1.14 | 1.03 | 0.318 | 0.279 | 0.322 | 0.317 | 0.297 | 0.958 | 0.862 | 0.864 | 0.874 | 0.872 | 0.374 | 0.316 | 0.326 | 0.306 | 0.287 |
| NCI-H1651 | 0.673 | 0.863 | 0.724 | 0.949 | 0.851 | 0.83 | 0.775 | 0.832 | 0.85 | 0.851 | 0.817 | 0.882 | 0.833 | 0.921 | 0.552 | 0.537 | 0.508 | 0.502 | 0.519 |
| HCC-44 | 1.04 | 1.14 | 1.04 | 0.966 | 1.17 | 1.08 | 1.09 | 0.979 | 1.06 | 0.907 | 0.824 | 0.822 | 0.89 | 0.817 | 1.02 | 1.03 | 0.94 | 0.955 | 1.1 |
| SW 1573 | 1.03 | 1.21 | 1.17 | 1.25 | 0.555 | 0.514 | 0.547 | 0.521 | 0.456 | 0.769 | 0.798 | 0.769 | 0.872 | 0.611 | 0.444 | 0.455 | 0.333 | 0.456 | 0.316 |
| PC-3 [JPC-3] | 0.426 | 0.446 | 0.499 | 0.471 | 0.715 | 0.759 | 0.763 | 0.774 | 0.612 | 0.969 | 1.05 | 0.989 | 0.971 | 0.994 | 0.539 | 0.53 | 0.576 | 0.521 | 0.571 |
| LOU-NH91 | 0.766 | 0.739 | 0.826 | 0.854 | 0.824 | 0.811 | 0.773 | 0.756 | 0.71 | 0.716 | 0.734 | 0.723 | 0.464 | 0.593 | 0.584 | 0.558 | 0.532 | 0.556 | 0.414 |
| PC-14 | 0.348 | 0.304 | 0.318 | 0.38 | 0.886 | 0.673 | 0.805 | 0.666 | 0.295 | 0.979 | 0.878 | 0.994 | 0.883 | 0.574 | 0.681 | 0.533 | 0.589 | 0.532 | 0.208 |
| NCI-H2087 | 1.25 | 1.26 | 0.944 | 0.948 | 0.256 | 0.171 | 0.21 | 0.181 | 0.182 | 0.717 | 0.918 | 0.889 | 0.899 | 1.06 | 0.256 | 0.308 | 0.254 | 0.235 | 0.255 |
| LU99A | 0.974 | 1.18 | 1.28 | 1.1 | 0.632 | 0.573 | 0.591 | 0.531 | 0.559 | 0.557 | 0.567 | 0.513 | 0.638 | 0.586 | 0.405 | 0.377 | 0.378 | 0.399 | 0.389 |
| BEN | 0.594 | 0.571 | 0.939 | 0.761 | 1.06 | 1.09 | 1.04 | 1.08 | 1.09 | 0.846 | 0.775 | 0.914 | 0.845 | 0.878 | 0.448 | 0.532 | 0.502 | 0.492 | 0.509 |
| SK-LU-1 | 0.944 | 0.799 | 0.849 | 0.814 | 0.576 | 0.507 | 0.528 | 0.54 | 0.471 | 0.994 | 0.776 | 1.03 | 1.05 | 0.834 | 0.455 | 0.388 | 0.37 | 0.384 | 0.389 |
| NCI-H1975 | 0.905 | 1.08 | 1.05 | 0.83 | 0.396 | 0.422 | 0.345 | 0.349 | 0.341 | 0.892 | 1 | 0.954 | 0.935 | 0.915 | 0.735 | 0.575 | 0.515 | 0.562 | 0.549 |
| RERF-LC-KJ | 0.784 | 0.835 | 0.843 | 0.85 | 0.863 | 0.919 | 0.959 | 0.782 | 0.834 | 0.865 | 0.804 | 0.859 | 0.856 | 0.798 | 1.12 | 1.01 | 1.25 | 1.05 | 1.05 |
| HCC-78 | 0.723 | – | 0.871 | 0.86 | 0.847 | 0.737 | 0.889 | 0.787 | 0.842 | 0.287 | 0.331 | 0.313 | 0.332 | 0.286 | 0.405 | 0.474 | 0.488 | 0.514 | 0.472 |
| NCI-H1915 | 0.964 | 1.09 | 1.02 | 0.946 | 0.31 | 0.306 | 0.296 | 0.268 | 0.258 | 0.929 | 0.91 | 0.862 | 0.904 | 0.856 | 0.58 | 0.514 | 0.55 | 0.506 | 0.476 |
